Drawing on PubChem BioAssay AID1259407 (Chemical Carcinogenesis Research Information System (CCRIS), 2018), this text covers mutagenic call for 2 molecules.

The series has as its system CCRIS mutagenicity, Ames/micronucleus/aberration tests. Description: CCRIS mutagenicity studies.
Setting [1] is: Test System: Ames Salmonella typhimurium, Strain/Indicator: TA98, Metabolic Activation: None, Method: Preincubation.
[2] abbreviates: Test System: Ames Salmonella typhimurium, Strain/Indicator: TA1535, Metabolic Activation: None, Method: Preincubation.
Setting [3] is: Test System: Ames Salmonella typhimurium, Strain/Indicator: TA1537, Metabolic Activation: None, Method: Preincubation.

Molecules are shown by their SMILES. Activity calls are given as the source filed them. No rule for the calls is given here.

With `N#CC(Br)Br`, the mutagenic call was “inactive; negative” (End Point: In vivo micronucleus, Test System: Peripheral blood normochromatic erythrocytes, Species: Mouse, Strain/Sex: B6C3F1/ Female, Route: Oral); “inactive; negative” (End Point: In vivo micronucleus, Test System: Peripheral blood normochromatic erythrocytes, Species: Mouse, Strain/Sex: B6C3F1/ Male, Route: Oral); “inactive; negative” (Test System: AMES SALMONELLA TYPHIMURIUM, Strain/Indicator: TA98, Metabolic Activation: NONE, Method: STANDARD PLATE); “inactive; negative” (Test System: AMES SALMONELLA TYPHIMURIUM, Strain/Indicator: TA98, Metabolic Activation: RAT, LIVER, S-9, AROCLOR 1254, Method: STANDARD PLATE); “inactive; negative” (Test System: AMES SALMONELLA TYPHIMURIUM, Strain/Indicator: TA100, Metabolic Activation: NONE, Method: FLUCTUATION TEST); “inactive; negative” (Test System: AMES SALMONELLA TYPHIMURIUM, Strain/Indicator: TA100, Metabolic Activation: NONE, Method: STANDARD PLATE). Also, the mutagenic call runs as follows: (Test System: AMES SALMONELLA TYPHIMURIUM, Strain/Indicator: TA100, Metabolic Activation: RAT, LIVER, S-9, AROCLOR 1254, Method: FLUCTUATION TEST) “inactive; negative”; (Test System: AMES SALMONELLA TYPHIMURIUM, Strain/Indicator: TA100, Metabolic Activation: RAT, LIVER, S-9, AROCLOR 1254, Method: STANDARD PLATE) “inactive; negative”; (Test System: AMES SALMONELLA TYPHIMURIUM, Strain/Indicator: TA1535, Metabolic Activation: NONE, Method: STANDARD PLATE) “inactive; negative”; (Test System: AMES SALMONELLA TYPHIMURIUM, Strain/Indicator: TA1535, Metabolic Activation: RAT, LIVER, S-9, AROCLOR 1254, Method: STANDARD PLATE) “inactive; negative”; (Test System: Ames Salmonella typhimurium, Strain/Indicator: TA97, Metabolic Activation: Hamster, Liver, S-9, Aroclor 1254 (10%), Method: Preincubation) “active; positive”; (Test System: Ames Salmonella typhimurium, Strain/Indicator: TA97, Metabolic Activation: Hamster, Liver, S-9, Aroclor 1254 (30%), Method: Preincubation) “inactive; negative”. The mutagenic call was “active; positive” (Test System: Ames Salmonella typhimurium, Strain/Indicator: TA97, Metabolic Activation: None, Method: Preincubation); “active; positive” (Test System: Ames Salmonella typhimurium, Strain/Indicator: TA97, Metabolic Activation: Rat, Liver, S-9, Aroclor 1254 (10%), Method: Preincubation); “inactive; negative” (Test System: Ames Salmonella typhimurium, Strain/Indicator: TA97, Metabolic Activation: Rat, Liver, S-9, Aroclor 1254 (30%), Method: Preincubation); “inactive; negative” (Test System: Ames Salmonella typhimurium, Strain/Indicator: TA98, Metabolic Activation: Hamster, Liver, S-9, Aroclor 1254 (10%), Method: Preincubation); “inactive; negative” (Test System: Ames Salmonella typhimurium, Strain/Indicator: TA98, Metabolic Activation: Hamster, Liver, S-9, Aroclor 1254 (10 and 30%), Method: Preincubation); “inactive; negative” under setting [1]. The mutagenic call by setting is: (Test System: Ames Salmonella typhimurium, Strain/Indicator: TA98, Metabolic Activation: Rat, Liver, S-9, Aroclor 1254 (10%), Method: Preincubation) “inactive; negative”; (Test System: Ames Salmonella typhimurium, Strain/Indicator: TA98, Metabolic Activation: Rat, Liver, S-9, Aroclor 1254 (10 and 30%), Method: Preincubation) “inactive; negative”; (Test System: Ames Salmonella typhimurium, Strain/Indicator: TA100, Metabolic Activation: Hamster, Liver, S-9, Aroclor 1254 (30%), Method: Preincubation) “inactive; negative”; (Test System: Ames Salmonella typhimurium, Strain/Indicator: TA100, Metabolic Activation: Rat, Liver, S-9, Aroclor 1254 (10%), Method: Preincubation) “inactive; negative”; under setting [2], “inactive; negative”; (Test System: Ames Salmonella typhimurium, Strain/Indicator: TA1535, Metabolic Activation: Rat, Liver, S-9, Aroclor 1254 (30%), Method: Preincubation) “inactive; negative”. The mutagenic call runs as follows: (Test System: Ames Salmonella typhimurium, Strain/Indicator: TA1537, Metabolic Activation: Hamster, Liver, S-9, Aroclor 1254 (30%), Method: Preincubation) “inactive; negative”; under setting [3], “inactive; negative”; (Test System: Ames Salmonella typhimurium, Strain/Indicator: TA1537, Metabolic Activation: Rat, Liver, S-9, Aroclor 1254 (10%), Method: Preincubation) “inactive; negative”; (Test System: Ames Salmonella typhimurium, Strain/Indicator: TA1538, Metabolic Activation: None, Method: Preincubation) “inactive; negative”; (Test System: E. coli, Strain/Indicator: WPM uvrA/pKM101, Metabolic Activation: Hamster, Liver, S-9, Aroclor 1254 (10%), Method: Preincubation) “active; positive”; (Test System: E. coli, Strain/Indicator: WPM uvrA/pKM101, Metabolic Activation: None, Method: Preincubation) “inactive; negative”. For the same molecule, the mutagenic call (Test System: E. coli, Strain/Indicator: WPM uvrA/pKM101, Metabolic Activation: Rat, Liver, S-9, Aroclor 1254 (10%), Method: Preincubation) is “inactive; negative”.
Consider `O=C(O)c1ccc(Cl)cc1Cl`, for which the mutagenic call by setting is: under setting [1], “inactive; negative. precipitation at highest dose”; (Test System: Ames Salmonella typhimurium, Strain/Indicator: TA98, Metabolic Activation: Rat, Liver, S9, Phenobarbital and 5,6-benzoflavone, Method: Preincubation) “inactive; negative. precipitation at highest dose”; (Test System: Ames Salmonella typhimurium, Strain/Indicator: TA100, Metabolic Activation: None, Method: Preincubation) “inactive; negative. precipitation at highest dose”; (Test System: Ames Salmonella typhimurium, Strain/Indicator: TA100, Metabolic Activation: Rat, Liver, S9, Phenobarbital and 5,6-benzoflavone, Method: Preincubation) “inactive; negative. precipitation at highest dose”; under setting [2], “inactive; negative. precipitation at highest dose”; (Test System: Ames Salmonella typhimurium, Strain/Indicator: TA1535, Metabolic Activation: Rat, Liver, S9, Phenobarbital and 5,6-benzoflavone, Method: Preincubation) “inactive; negative. precipitation at highest dose”. Besides, the mutagenic call is “inactive; negative. precipitation at highest dose” under setting [3]; “inactive; negative. precipitation at highest dose” (Test System: Ames Salmonella typhimurium, Strain/Indicator: TA1537, Metabolic Activation: Rat, Liver, S9, Phenobarbital and 5,6-benzoflavone, Method: Preincubation); “inactive; negative. precipitation at highest dose” (Test System: E. coli, Strain/Indicator: WP2uvrA/pKM101, Metabolic Activation: None, Method: Preincubation); “inactive; negative. precipitation at highest dose” (Test System: E. coli, Strain/Indicator: WP2uvrA/pKM101, Metabolic Activation: Rat, Liver, S9, Phenobarbital and 5,6-benzoflavone, Method: Preincubation).
